According to US10845368B2, “Nanoparticles for mitochondrial trafficking of agents” (UNIVERSITY OF GEORGIA RESEARCH FOUNDATION, INC., priority 2012, dated 2020):

Columns and labels:
[1] = tested on: 3T3-L1 cells; settings: 3T3-L1, 100 μM
Description: To examine whether encapsulation of 2,4-DNP in targeted nanoparticles can suppress the induced differentiation of 3T3-L1 preadipocytes at a low dosage that is insufficient to exert cytotoxicity, we continuously exposed 3T3-L1 cells to 1 μM, 4 μM, 25 μM, and 100 μM targeted 2,4-DNP nanoparticles (FIGS. 12A-D and 13) during the differentiation period for 7 d, and evaluated cell viability and intracellular lipid accumulation. Nontargeted 2,4-DNP nanoparticles and free 2,4-DNP were used as controls.

[2] = tested on: HeLa cells; assay: MTT cytotoxicity assay; assay type: cell-based, human
Text: FIGS. 11A-C are bar graphs showing cytotoxicity profiles of targeted LND nanoparticles, nontargeted LND nanoparticles, free LND (A); targeted α-TOS nanoparticles, nontargeted α-TOS nanoparticles, free α-TOS in HeLa cells (B); and empty targeted nanoparticles, and empty nontargeted nanoparticles in HeLa cells (C).
The selectivity and efficiency of LND and α-TOS against cancer cells depend on their ability to target the mitochondria of cells. To evaluate the efficacy of our targeted nanoparticles in delivering LND and α-TOS, we performed MTT assays in HeLa cells. […] Preferential localization in the target organelle accounts for the enhanced cytotoxicity of both LND and α-TOS encapsulated in the targeted nanoparticles.

## O=[N+]([O-])c1ccc(O)c([N+](=O)[O-])c1 [Free 2,4-DNP, 2,4-dinitrophenol]
[1]
  cellular toxicity: demonstrated cellular toxicity

## Cc1c(C)c2c(c(C)c1OC(=O)CCC(=O)O)CC[C@@](C)(CCC[C@H](C)CCC[C@H](C)CCCC(C)C)O2 [free α-TOS, α-tocopheryl succinate]
[2]
  IC50: 381 ± 5 nM
